Assay results: ChEMBL document CHEMBL1201862, “PubChem BioAssay data set” (2004)
Active and inactive are the calls of the source.

Assays:
[1] = target: NAD-dependent protein deacylase sirtuin-5, mitochondrial (Homo sapiens, UniProt Q9NXA8); assay: sirtuin-5 deacylation blockers, concentration series – biochemical, fluorescence imaging, cherry-pick, set 5, dose response (AID 720591);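 note: desuccinylation of succinyl peptide AMC substrate read as fluorescence after trypsin release; potency of inhibitors that lower fluorescence and may act on trypsin instead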
Sequence of NAD-dependent protein deacylase sirtuin-5, mitochondrial (Q9NXA8 whole entry, the tested form may be a part): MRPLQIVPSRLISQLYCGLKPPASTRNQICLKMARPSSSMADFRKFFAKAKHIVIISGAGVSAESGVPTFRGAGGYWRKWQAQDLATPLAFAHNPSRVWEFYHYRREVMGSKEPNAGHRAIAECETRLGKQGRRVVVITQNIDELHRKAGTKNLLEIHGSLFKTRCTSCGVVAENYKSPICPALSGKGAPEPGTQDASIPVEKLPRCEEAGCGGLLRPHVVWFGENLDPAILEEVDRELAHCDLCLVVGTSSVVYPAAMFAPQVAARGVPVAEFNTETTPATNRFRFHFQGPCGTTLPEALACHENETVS

[2] = target: T1, Oxysterols receptor LXR-beta (Homo sapiens, UniProt P55055); format: functional, cell-based;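 note: Cell-based luminescence dose-response assay of agonist activity at LXR, run as a confirmatory counterscreen to a daf-12 agonist screen; HEK293 cells with Gal4-LXR fusion and GAL4-driven luciferase reporter; agonist potency from rising luciferase signal of a Gal4-LXR reporter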
T1 sequence (P55055 whole entry): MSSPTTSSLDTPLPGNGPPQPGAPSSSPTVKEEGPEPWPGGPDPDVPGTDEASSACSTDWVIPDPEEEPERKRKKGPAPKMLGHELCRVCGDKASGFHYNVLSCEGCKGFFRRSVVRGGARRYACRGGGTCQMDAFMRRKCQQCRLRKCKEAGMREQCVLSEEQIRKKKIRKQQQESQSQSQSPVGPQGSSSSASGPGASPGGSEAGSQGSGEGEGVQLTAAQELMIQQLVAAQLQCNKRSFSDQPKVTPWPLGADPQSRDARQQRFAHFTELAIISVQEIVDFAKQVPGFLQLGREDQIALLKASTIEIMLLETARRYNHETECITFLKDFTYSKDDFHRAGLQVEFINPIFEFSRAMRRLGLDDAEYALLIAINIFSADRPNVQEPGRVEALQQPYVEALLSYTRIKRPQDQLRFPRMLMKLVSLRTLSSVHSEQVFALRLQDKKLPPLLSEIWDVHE

[3] = A549 cell cytotoxicity, dose response, cytotoxicity control, plate reader, cherry-pick, antagonist series (AID 743412); format: functional, cell-based
[4] = DRD fibroblast viability loss – cell-based, non-viral oncogenic, luminescence, dose response (AID 1934); format: functional; details: Homo sapiens
[5] = toxicity toward HepG2 liver cells – cell-based, plate reader, cherry-pick, antagonist series, cytotoxicity control, dose response (AID 743416); format: functional
[6] = viability loss in HEK293 cells – cell-based, plate reader, cherry-picked samples, cytotoxicity control, dose response (AID 743446); format: functional
BJ [7] = assay: cells; format: functional, cell-based; details: Homo sapiens
[8] = blockade of melanocortin 4 receptor signaling – cell-based, plate reader, cherry pick, counter-screen for LGR2 antagonist project, dose response (AID 743444); format: functional;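 note: transfected HEK 293 cells stimulated with alpha-MSH peptide; potency of inhibitors of the alpha-MSH evoked signal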
[9] = blockers of bursicon-stimulated LGR2 cAMP reporter – cell-based, HEK293, CRE-luciferase reporter, cherry pick, set 2, dose response (AID 743343); format: functional;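 note: transfected cells were stimulated with diluted bursicon conditioned medium after compound addition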
HEK293 = assay: EBV LMP1 TES2 canonical NF-kB signalling blockers – cell-based, HEK293, luciferase, cherry-pick, dose response (AID 588343); format: functional; details: Homo sapiens
HT-1080 = assay: HT1080 cell viability loss – fluorescence readout (AID 620); format: functional, cell-based; details: Homo sapiens
BJ [10] = assay: BJ-TERT-LT-ST fibroblast viability loss – cell-based, RAS-independent, luminescence, dose response (AID 1935); format: functional; details: Homo sapiens;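 note: BJ fibroblasts immortalized with TERT plus LT and ST oncogenes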
BJ [11] = assay: BJ-TERT fibroblast viability loss – cell-based, RAS-independent, luminescence, dose response (AID 1933); format: functional; details: Homo sapiens
[12] = target: Induced myeloid leukemia cell differentiation protein Mcl-1 (Homo sapiens, UniProt Q07820); format: functional
Sequence of Induced myeloid leukemia cell differentiation protein Mcl-1 (Q07820 whole entry): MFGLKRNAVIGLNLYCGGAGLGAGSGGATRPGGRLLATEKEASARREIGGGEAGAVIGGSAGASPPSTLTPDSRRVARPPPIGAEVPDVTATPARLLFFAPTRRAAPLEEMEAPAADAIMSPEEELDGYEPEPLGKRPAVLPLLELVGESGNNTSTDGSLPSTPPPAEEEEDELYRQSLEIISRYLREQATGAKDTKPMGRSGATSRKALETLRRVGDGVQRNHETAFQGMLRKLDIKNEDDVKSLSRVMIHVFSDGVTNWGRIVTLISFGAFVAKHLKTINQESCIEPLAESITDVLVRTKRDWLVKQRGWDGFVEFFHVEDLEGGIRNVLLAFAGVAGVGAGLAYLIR

[13] = NIH-3T3 fibroblast cytotoxicity, dose response, cytotoxicity control, cell-based, fluorescence, Alamar Blue, secondary assay (AID 2327); format: functional;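 note: NIH-3T3 mouse fibroblasts cultured with fluconazole at 8 µg/mL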
[14] = fluconazole-exposed Candida albicans growth modulators – fluorescence, retest, confirmation (AID 2467); format: functional, cell-based
Ephrin type-A receptor 4 = Ephrin type-A receptor 4 (Mus musculus, UniProt Q03137); assay: EphA4 ligand-binding antagonists – biochemical, colorimetric, mouse EphA4, primary screen (AID 689); format: functional
Sequence of Ephrin type-A receptor 4 (Q03137 whole entry): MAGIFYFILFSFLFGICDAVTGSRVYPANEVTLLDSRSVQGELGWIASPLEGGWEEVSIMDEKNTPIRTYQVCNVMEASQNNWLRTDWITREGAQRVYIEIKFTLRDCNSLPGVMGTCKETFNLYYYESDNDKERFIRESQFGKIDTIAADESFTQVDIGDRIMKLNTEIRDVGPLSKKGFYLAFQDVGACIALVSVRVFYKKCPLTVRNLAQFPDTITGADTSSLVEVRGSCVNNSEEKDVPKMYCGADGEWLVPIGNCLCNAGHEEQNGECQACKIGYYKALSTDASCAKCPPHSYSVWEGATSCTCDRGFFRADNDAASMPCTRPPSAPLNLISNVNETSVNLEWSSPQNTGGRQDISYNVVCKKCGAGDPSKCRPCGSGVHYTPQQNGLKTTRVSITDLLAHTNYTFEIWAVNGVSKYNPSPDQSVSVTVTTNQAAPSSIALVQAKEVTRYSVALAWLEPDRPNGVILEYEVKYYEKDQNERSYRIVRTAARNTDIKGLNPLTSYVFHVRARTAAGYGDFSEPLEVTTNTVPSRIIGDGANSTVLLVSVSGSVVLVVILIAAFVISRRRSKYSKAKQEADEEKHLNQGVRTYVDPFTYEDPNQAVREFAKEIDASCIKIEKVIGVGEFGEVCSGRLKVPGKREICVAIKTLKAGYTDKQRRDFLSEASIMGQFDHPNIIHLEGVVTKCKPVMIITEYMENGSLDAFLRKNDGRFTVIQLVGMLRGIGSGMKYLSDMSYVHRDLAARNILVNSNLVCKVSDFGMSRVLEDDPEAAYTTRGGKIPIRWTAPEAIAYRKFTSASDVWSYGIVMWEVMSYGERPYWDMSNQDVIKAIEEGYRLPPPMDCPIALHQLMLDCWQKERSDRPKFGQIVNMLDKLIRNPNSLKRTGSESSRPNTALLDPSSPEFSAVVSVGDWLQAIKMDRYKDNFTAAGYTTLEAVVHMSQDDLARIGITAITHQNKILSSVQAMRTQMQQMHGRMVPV

[15] = viability loss of HPDE-C7K cells – cell-based, fluorescence, HTS, primary screen (AID 431); format: functional; details: Homo sapiens
Estrogen receptor beta [16] = target: T2, Estrogen receptor beta (Homo sapiens, UniProt Q92731); assay: blockers of SRC-3 recruitment to ERβ – biochemical, ELISA, streptavidin-HRP readout, orthogonal assay, confirmation (AID 1060)
T2 sequence (Q92731 whole entry): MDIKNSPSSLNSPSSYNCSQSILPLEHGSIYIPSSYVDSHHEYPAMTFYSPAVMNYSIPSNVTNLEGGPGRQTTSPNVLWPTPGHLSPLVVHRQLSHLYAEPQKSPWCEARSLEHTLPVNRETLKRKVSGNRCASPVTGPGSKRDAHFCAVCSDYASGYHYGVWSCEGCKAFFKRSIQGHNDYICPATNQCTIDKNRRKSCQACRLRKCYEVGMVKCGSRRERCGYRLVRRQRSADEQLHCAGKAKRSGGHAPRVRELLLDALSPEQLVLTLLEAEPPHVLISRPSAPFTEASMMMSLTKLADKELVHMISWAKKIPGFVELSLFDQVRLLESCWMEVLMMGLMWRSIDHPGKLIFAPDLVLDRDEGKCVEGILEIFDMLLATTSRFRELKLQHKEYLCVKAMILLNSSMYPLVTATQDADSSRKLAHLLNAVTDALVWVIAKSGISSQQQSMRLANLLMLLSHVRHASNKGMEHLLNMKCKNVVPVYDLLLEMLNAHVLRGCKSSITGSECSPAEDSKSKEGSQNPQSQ

Estrogen receptor beta [17] = target: T2, Estrogen receptor beta
[18] = target: T3, Heat shock factor protein 1 (Mus musculus, UniProt P38532); assay: enhancement of HSF1-driven luciferase signal – cell-based, NIH3T3, luminescence, dose retest, confirmation (AID 435004); format: functional;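 note: stress induced by proteasome inhibitor MG132 added 30 min after compound; luciferase reporter driven by HSF1 response element in NIH3T3 cells; actives raise luminescence as potentiators of the MG132 stress response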
T3 sequence (P38532 whole entry): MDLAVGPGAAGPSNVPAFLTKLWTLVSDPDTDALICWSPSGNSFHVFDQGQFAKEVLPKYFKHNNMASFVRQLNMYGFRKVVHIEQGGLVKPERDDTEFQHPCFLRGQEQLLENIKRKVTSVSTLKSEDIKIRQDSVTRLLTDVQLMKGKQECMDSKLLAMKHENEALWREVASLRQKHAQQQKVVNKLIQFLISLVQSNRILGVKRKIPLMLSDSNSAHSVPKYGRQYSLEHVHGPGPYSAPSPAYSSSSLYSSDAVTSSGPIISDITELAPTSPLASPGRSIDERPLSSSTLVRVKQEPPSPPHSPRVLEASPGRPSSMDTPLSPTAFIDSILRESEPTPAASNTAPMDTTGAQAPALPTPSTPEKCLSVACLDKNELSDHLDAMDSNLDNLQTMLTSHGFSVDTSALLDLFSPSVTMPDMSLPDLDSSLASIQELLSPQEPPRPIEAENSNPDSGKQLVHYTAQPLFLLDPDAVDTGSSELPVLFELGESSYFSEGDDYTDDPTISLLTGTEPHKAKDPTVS

[19] = HPDE-C7 pancreatic duct cell viability loss – fluorescence, HTS (AID 430); format: functional, cell-based; details: Homo sapiens
[20] = Dd2 parasite growth inhibition in erythrocytes – SYBR Green, dry powder samples, set 9, dose response (AID 1159568); format: functional, cell-based
[21] = target: Mitogen-activated protein kinase 10 (Homo sapiens, UniProt P53779); assay: Dose response biochemical screening assay for inhibitors of c-Jun N-Terminal Kinase 3 (JNK3). [Related pubchem assays: 746 ]
Sequence of Mitogen-activated protein kinase 10 (P53779 whole entry): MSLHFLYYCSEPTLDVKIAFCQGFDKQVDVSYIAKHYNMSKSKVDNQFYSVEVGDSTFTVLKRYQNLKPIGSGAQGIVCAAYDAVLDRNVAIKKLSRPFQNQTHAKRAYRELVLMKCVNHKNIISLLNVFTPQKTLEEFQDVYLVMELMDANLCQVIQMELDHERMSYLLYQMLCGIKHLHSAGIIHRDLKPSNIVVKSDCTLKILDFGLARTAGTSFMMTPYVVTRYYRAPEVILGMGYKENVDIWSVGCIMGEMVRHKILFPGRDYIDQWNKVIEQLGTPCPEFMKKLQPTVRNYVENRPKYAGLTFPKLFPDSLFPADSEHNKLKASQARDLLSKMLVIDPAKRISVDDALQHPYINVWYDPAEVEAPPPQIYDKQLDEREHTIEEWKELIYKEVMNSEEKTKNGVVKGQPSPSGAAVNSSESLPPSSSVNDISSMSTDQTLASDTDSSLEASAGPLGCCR

[22] = target: T4, Tyrosine-protein phosphatase non-receptor type 7 (Homo sapiens, UniProt P35236); assay: HePTP tyrosine phosphatase activity blockers – biochemical, absorbance, leukemia target, primary screen (AID 521); format: functional
T4 sequence (P35236 whole entry): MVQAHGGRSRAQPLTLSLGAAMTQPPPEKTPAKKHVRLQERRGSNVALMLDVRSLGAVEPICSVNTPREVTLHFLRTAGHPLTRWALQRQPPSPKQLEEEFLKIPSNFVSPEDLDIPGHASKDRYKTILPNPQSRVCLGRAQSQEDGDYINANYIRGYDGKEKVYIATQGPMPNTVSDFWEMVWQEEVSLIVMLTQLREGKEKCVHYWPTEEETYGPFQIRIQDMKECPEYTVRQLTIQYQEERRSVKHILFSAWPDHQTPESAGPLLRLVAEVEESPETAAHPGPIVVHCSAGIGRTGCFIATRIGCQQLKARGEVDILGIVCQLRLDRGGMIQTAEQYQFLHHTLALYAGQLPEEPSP

[23] = target: T5, Corticotropin-releasing factor receptor 2/Corticotropin-releasing factor-binding protein (Homo sapiens, UniProt P24387+Q13324); assay: activators of CRF receptor 2 with binding protein – uHTS hits, confirmation (AID 602473); format: functional; details: read-out: EC50_Mean
T5 sequence (Q13324 whole entry): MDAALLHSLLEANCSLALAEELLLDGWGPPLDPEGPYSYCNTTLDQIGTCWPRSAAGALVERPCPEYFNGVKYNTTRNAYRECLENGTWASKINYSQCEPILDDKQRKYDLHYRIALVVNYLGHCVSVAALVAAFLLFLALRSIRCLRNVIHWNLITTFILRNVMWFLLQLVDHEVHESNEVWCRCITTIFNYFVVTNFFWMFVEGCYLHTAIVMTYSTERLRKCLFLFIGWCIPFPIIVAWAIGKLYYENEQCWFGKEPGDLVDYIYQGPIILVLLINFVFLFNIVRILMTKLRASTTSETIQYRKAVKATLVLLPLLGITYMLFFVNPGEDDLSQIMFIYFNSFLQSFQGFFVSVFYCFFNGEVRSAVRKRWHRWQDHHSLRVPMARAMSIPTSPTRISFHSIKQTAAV
T5 sequence (P24387 whole entry): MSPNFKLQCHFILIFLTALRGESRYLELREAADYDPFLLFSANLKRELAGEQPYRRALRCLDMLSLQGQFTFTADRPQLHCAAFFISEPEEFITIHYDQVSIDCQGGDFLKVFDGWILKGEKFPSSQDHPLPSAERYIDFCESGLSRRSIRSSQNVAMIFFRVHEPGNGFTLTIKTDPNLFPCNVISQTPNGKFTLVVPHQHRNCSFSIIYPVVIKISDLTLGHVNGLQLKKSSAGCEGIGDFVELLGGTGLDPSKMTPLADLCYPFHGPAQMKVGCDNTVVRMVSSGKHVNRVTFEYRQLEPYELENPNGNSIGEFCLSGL

Cytochrome P450 2C19 = Cytochrome P450 2C19 (Homo sapiens, UniProt P33261); assay: Cytochrome panel assay with activity outcomes. Panel member name: p450-cyp2c19 Compounds with AC50 equal or less than 10 uM are considered active; format: functional; details: read-out: AC50
Sequence of Cytochrome P450 2C19 (P33261 whole entry): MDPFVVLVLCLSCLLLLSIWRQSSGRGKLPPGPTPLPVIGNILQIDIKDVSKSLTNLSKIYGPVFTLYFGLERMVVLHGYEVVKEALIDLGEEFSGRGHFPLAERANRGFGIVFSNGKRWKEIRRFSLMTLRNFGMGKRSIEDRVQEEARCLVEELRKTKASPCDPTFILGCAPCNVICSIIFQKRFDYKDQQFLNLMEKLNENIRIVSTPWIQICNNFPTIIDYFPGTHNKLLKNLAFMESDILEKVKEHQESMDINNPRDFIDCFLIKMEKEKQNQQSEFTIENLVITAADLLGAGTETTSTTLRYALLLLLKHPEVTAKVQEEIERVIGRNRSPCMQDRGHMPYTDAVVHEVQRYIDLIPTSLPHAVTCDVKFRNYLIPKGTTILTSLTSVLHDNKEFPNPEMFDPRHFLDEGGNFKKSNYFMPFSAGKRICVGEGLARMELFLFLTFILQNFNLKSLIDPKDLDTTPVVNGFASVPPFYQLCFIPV

[24] = target: Sphingosine 1-phosphate receptor 2 (Homo sapiens, UniProt O95136); assay: Dose Response Cell Based Assay for Antagonists of the S1P2 Receptor. [Related pubchem assays: 856, 736 ]; format: functional
Sequence of Sphingosine 1-phosphate receptor 2 (O95136 whole entry): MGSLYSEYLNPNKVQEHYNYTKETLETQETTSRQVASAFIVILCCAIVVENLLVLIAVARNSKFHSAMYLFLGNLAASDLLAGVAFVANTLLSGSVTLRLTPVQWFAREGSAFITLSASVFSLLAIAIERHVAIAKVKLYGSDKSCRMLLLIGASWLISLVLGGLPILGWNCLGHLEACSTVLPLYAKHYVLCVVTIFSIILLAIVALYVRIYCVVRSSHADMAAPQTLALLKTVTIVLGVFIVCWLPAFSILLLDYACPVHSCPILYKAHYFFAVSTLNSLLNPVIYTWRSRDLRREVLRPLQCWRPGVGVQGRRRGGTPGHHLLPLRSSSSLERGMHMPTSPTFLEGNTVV

Cytochrome P450 2C9 = Cytochrome P450 2C9 (Homo sapiens, UniProt P11712)
Sequence of Cytochrome P450 2C9 (P11712 whole entry): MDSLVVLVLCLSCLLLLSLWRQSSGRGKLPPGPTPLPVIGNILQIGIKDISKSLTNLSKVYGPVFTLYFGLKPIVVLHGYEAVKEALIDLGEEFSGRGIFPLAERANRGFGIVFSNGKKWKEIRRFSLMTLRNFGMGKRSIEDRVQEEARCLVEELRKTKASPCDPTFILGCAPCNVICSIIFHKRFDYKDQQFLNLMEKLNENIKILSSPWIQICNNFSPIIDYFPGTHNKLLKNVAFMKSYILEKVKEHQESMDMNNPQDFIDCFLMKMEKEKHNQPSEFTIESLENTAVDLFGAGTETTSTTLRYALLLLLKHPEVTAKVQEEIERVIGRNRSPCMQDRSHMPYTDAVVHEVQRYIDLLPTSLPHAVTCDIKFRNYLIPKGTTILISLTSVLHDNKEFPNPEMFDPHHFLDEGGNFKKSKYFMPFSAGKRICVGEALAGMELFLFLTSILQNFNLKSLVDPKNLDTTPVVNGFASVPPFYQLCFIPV

[25] = viability inhibitors of stage V gametocytes – luminescence, dose response (AID 1117278); format: functional, cell-based;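 note: gametocytes exposed to compound for 24 hours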
[26] = viability loss in human Jurkat cells – cell-based, luminescence, cytotoxicity control for P. falciparum gametocyte viability project, dose response (AID 1117277); format: functional;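 note: potency reflects loss of cellular ATP meaning fewer viable cells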
[27] = IC50 of insulin release inhibition, rat insulinoma INS-1E line, 5 mM glucose, cell-based (AID 1117331); format: functional
[28] = reduced cellular PGC1a acetyl-lysine signal – cell-based, cherry-picked samples, dose response (AID 720514); format: functional;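 note: potency may reflect raised or lowered acetylation signal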
Protein Tat = Protein Tat (Human immunodeficiency virus type 1 group M subtype B (isolate HXB2)(HIV-1), UniProt P04608); format: functional;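 note: tat binding to TAR RNA read out by fluorescence polarization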
Sequence of Protein Tat (P04608 whole entry): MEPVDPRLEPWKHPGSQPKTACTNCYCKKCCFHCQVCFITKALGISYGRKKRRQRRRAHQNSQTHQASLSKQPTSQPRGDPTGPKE

[29] = viability loss in THP-1 monocytes – THP-1 cells, cytotoxicity control for Vif-APOBEC3G degradation inhibitor project, dose response (AID 1117359); format: functional; details: THP-1

## O=C(Cc1cccc(NC(=O)C2CCCN(C(=O)C3CCCC3)C2)c1)Nc1cccc(C(=O)N2CCOCC2)c1 (stereo unspecified)
[1]
  AC50: > 30 µM (inactive)

## CS(=O)(=O)N(CC(=O)N1CCCCC1)c1cccc(F)c1
[1]
  AC50: 29.7 µM (active)

## COc1ccccc1-c1nc(-c2ccccn2)no1
[2]
  EC50: > 67.5 µM (inactive)
[3]
  AC50: 10.4 µM (active)
[4]
  EC50: 7.2 µM (active)
[5]
  AC50: 19.4 µM (active)
[6]
  AC50: 10.7 µM (active)
BJ [7]
  EC50: 10.4 µM (active)
[8]
  AC50: 2.05 µM (active)
[9]
  AC50: 3.35 µM (active)
HEK293
  AC50: 1.26 µM (active)
HT-1080
  EC50: > 50 µM (not active)
cells
  EC50: > 67.5 µM (inactive)
BJ [10]
  EC50: > 150 µM (inconclusive)
BJ [11]
  EC50: 9.58 µM (active)

## COc1cc(C(Nc2ccccn2)c2ccc3ccc(C)nc3c2O)cc(OC)c1O (stereo unspecified)
[12]
  IC50: 0.786 µM (active)
[13]
  EC50: 5.42 µM (inconclusive)
[14]
  EC50: > 38 µM (not active)
Ephrin type-A receptor 4
  IC50: 2.02 µM (active)
[15]
  EC50: 4.83 µM (active)
Estrogen receptor beta [16]
  IC50: > 109 µM (not active)
Estrogen receptor beta [17]
  IC50: 3.13 µM (active)
[18]
  EC50: 4.22 µM (active)
[19]
  EC50: 4.68 µM (active)

## O=C(Nc1ccccc1F)N1CCCCN2[C@H](CO)[C@H](c3ccc(/C=C/c4ccccc4)cc3)[C@H]2C1
[20]
  AC50: 1.6 µM (active)

## O=C1c2ccccc2C(=O)C1c1ccncc1
[21]
  IC50: 18 µM (not active)

## CN1CCc2c(sc3c2C(=O)NC(c2cccs2)N3)C1 (stereo unspecified)
[22]
  IC50: > 100 µM (not active)
[23]
  EC50: > 53 µM (inactive)

## O=C(O)c1sc2cc(C(F)(F)F)cnc2c1-c1ccccc1
Cytochrome P450 2C19
  AC50: 39.8 µM (inconclusive)
[24]
  IC50: > 30 µM (not active)
Cytochrome P450 2C9
  AC50: 28.2 µM (inconclusive)

## Cc1ccc(-c2csc3ncnc(S)c23)cc1
[25]
  IC50: > 109 µM (inactive)
[26]
  IC50: 76.2 µM (inactive)

## O=C(CNC(=O)c1ccc(Br)o1)Nc1cccc(-c2cnc3ccccc3n2)c1
[21]
  IC50: 41.2 µM (not active)

## C[C@@H](CN(C)C)CN1c2ccccc2Sc2ccccc21
[27]
  IC50: > 33.3 µM (inactive)

## CCC(C(=O)NCc1cccnc1)c1ccccc1 (stereo unspecified)
[25]
  IC50: > 109 µM (inactive)
[26]
  IC50: > 83.2 µM (inactive)

## O=C(Nc1cc(S(=O)(=O)N2CCOCC2)ccc1Cl)c1cc([N+](=O)[O-])ccc1Cl
[28]
  AC50: 13 µM (active)

## C[C@@H]1CCCCO[C@@H](CN(C)S(=O)(=O)c2ccc(F)cc2)[C@@H](C)CN([C@H](C)CO)C(=O)c2cc(N(C)C)ccc2O1
[20]
  AC50: 7.15 µM (active)

## COc1ccc(S(=O)(=O)c2c(N)n(Cc3ccco3)c3nc4ccccc4nc23)cc1
Protein Tat
  IC50: 3.46 µM (inconclusive)
[29]
  CC50: > 40 µM (active)
